Measurements from patent US20110112164A1, “NOVEL POLYMORPHS AND PROCESSES FOR THEIR PREPARATION” (Generics (UK) Limited, priority 2008, published 2011).
Read-outs that look alike come from different tables or passages of the source.

Key:
[1] = prior art form of WO 03/016305; cited from earlier work
[2] = prior art form of WO 03/016305; cited from earlier work; remark: listed apart in the source
[3] = Hygroscopicity of crystalline forms of sunitinib malate; type: physicochemical; settings: crystalline solid form
[4] = Stability (thermodynamic / polymorphic) of crystalline forms of sunitinib malate; type: physicochemical; settings: crystalline solid form

| hygroscopicity [3] | stability [4] | SMILES | hygroscopicity [1] | polymorphic conversion [2] | thermodynamic stability [2] |
| --- | --- | --- | --- | --- | --- |
|  |  | CCN(CC)CCNC(=O)c1c(C)[nH]c(/C=C2\C(=O)Nc3ccc(F)cc32)c1C.O=C(O)CC(O)C(=O)O [Form II, (Z)—N-[2-(diethylamino)ethyl]-5-(5-fluoro-2-oxo-2,3-dihydro-1H-indole-3-ylidenemethyl)-2,4-dimethyl-1H-pyrrole-3-carboxamide 2(S)-hydroxybutanedioic acid] | hygroscopic | readily convert to form I | thermodynamically unstable |
| non-hygroscopic | stable | CCN(CC)CCNC(=O)c1c(C)[nH]c(/C=C2\C(=O)Nc3ccc(F)cc32)c1C.O=C(O)CC(O)C(=O)O [form III, (Z)—N-[2-(diethylamino)ethyl]-5-(5-fluoro-2-oxo-2,3-dihydro-1H-indole-3-ylidenemethyl)-2,4-dimethyl-1H-pyrrole-3-carboxamide 2(S)-hydroxybutanedioic acid] |  |  |  |
